Data reported in patent US6525001B1, “Substituted pyrimidine and pyridine herbicides” (Mid-American Commercialization Corporation, priority 1997, dated 2003).

Columns and labels:
Type in all cases: in vivo
Set-up in all cases: key: 0 is no effect; 10 is complete control
[1] = system: bedstraw (Galium aparine); experiment: Test B pre-/postemergence; details: for Bedstraw plant response rating: Preemergence
From the text: (§1) Seeds of bedstraw (Galium aparine), blackgrass (Alopecurus myosuroides), broadleaf signalgrass (Brachiaria decumbens), cocklebur (Xanthium strumarium), corn (Zea mays), crabgrass (Digitaria sanguinalis), giant foxtail (Setaria faberii), lambsquarters (Chenopodium album), momingglory (Ipomoea hederacea), pigweed (Amaranthus retroflexus), rape (Brassica napus), soybean (Glycine max), sugar beet (Beta vulgaris), velvetleaf (Abutilon theophrasti), wheat (Triticum aestivum), wild oat (Avena fatua) and purple nutsedge (Cyperus rotundus) tubers were planted and treated preemergence with test chemicals formulated in a non-phytotoxic solvent mixture which included a surfactant.
(§2) At the same time, these crop and weed species were also treated with postemergence applications of test chemicals formulated in the same manner. Plants ranged in height from 2 to 18 cm (1- to 4-leaf stage) for postemergence treatments. Plant species in the flood test consisted of rice (Oryza sativa), smallflower flatsedge (Cyperus difformis), duck salad (Heteranthera limosa) and bamyardgrass (Echinochloa crus-galli) grown to the 2-leaf stage for testing. Treated plants and controls were maintained in a greenhouse for twelve to sixteen days, after which all species were compared to controls and visually evaluated. Plant response ratings, summarized in Table B, are based on a scale of 0 to 10 where 0 is no effect and 10 is complete control. A dash (−) response means no test result.

[2] = system: blackgrass (Alopecurus myosuroides); experiment: Test B pre-/postemergence; details: for Blackgrass plant response rating: Preemergence
From the text: as §1, §2

[3] = system: broadleaf signalgrass (Brachiaria decumbens); experiment: Test B pre-/postemergence; details: for B. signalgrass plant response rating: Preemergence
From the text: as §1, §2

[4] = system: cocklebur (Xanthium strumarium); experiment: Test B pre-/postemergence; details: for Cocklebur plant response rating: Preemergence
From the text: as §1, §2

corn (Zea mays) = experiment: Test B pre-/postemergence; details: for Corn plant response rating: Preemergence
From the text: as §1, §2

[5] = system: crabgrass (Digitaria sanguinalis); experiment: Test B pre-/postemergence; details: for Crabgrass plant response rating: Preemergence
From the text: as §1, §2

[6] = system: giant foxtail (Setaria faberii); experiment: Test B pre-/postemergence
From the text: as §1, §2

[7] = system: momingglory (Ipomoea hederacea); experiment: Test B pre-/postemergence
From the text: as §1, §2

[8] = system: pigweed (Amaranthus retroflexus); experiment: Test B pre-/postemergence
From the text: as §1, §2

[9] = system: purple nutsedge (Cyperus rotundus); experiment: Test B pre-/postemergence
From the text: as §1, §2

rape (Brassica napus) = experiment: Test B pre-/postemergence
From the text: as §1, §2

soybean (Glycine max) = experiment: Test B pre-/postemergence
From the text: as §1, §2

[10] = system: sugar beet (Beta vulgaris); experiment: Test B pre-/postemergence
From the text: as §1, §2

[11] = system: velvetleaf (Abutilon theophrasti); experiment: Test B pre-/postemergence
From the text: as §1, §2

[12] = system: wheat (Triticum aestivum); experiment: Test B pre-/postemergence
From the text: as §1, §2

wild oat (Avena fatua) = experiment: Test B pre-/postemergence
From the text: as §1, §2

[13] = system: bamyardgrass (Echinochloa crus-galli); experiment: Test B flood test
Procedure, shortened: (§3)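 Read-out is a visual response score from 0 (no effect) to 10 (complete control), assigned by comparison with untreated controls. Treatment was applied at the 2-leaf stage, and plants stayed in the greenhouse for twelve to sixteen days before scoring.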

[14] = system: duck salad (Heteranthera limosa); experiment: Test B flood test
Procedure, shortened: as §3

rice (Oryza sativa) = experiment: Test B flood test
Procedure, shortened: as §3

[15] = system: smallflower flatsedge (Cyperus difformis); experiment: Test B flood test
Procedure, shortened: as §3

[16] = Rate 250 g/ha, Postemergence (so in the source)
[17] = Rate 62 g/ha, Postemergence (flood test)
[18] = Rate 125 g/ha, Postemergence, flood test
[19] = Rate 250 g/ha, Postemergence (flood test species)
[20] = Rate 125 g/ha, Postemergence section (flood test species)

Cc1cnc(-c2ccccc2F)nc1Cc1cccc(C(F)(F)F)c1 [Compound 26]
5: Plant response rating, Soybean (soybean (Glycine max); Rate 250 g/ha, Postemergence)
1: Plant response rating, Bedstraw ([1]; Rate 62 g/ha, Postemergence) | Plant response rating, Blackgrass ([2]; Rate 125 g/ha, Postemergence) | Plant response rating, Blackgrass ([2]; Rate 250 g/ha, Postemergence) | Plant response rating, B. signalgrass ([3]; Rate 62 g/ha, Postemergence) | Plant response rating, B. signalgrass ([3]; Rate 125 g/ha, Postemergence) | Plant response rating, B. signalgrass ([3]; Rate 250 g/ha, Postemergence as printed in head r139 (second section for compounds 26-50)) | Plant response rating, Corn (corn (Zea mays); Rate 62 g/ha, Postemergence) | Plant response rating, Corn (corn (Zea mays); Rate 125 g/ha, Postemergence) | Plant response rating, Corn (corn (Zea mays); Rate 250 g/ha, Postemergence) | Plant response rating, Crabgrass ([5]; Rate 62 g/ha, Postemergence) | Plant response rating, Crabgrass ([5]; Rate 125 g/ha, Postemergence) | Plant response rating, Crabgrass ([5]; Rate 250 g/ha, Postemergence) | Plant response rating, Crabgrass [5, 16] | Plant response rating, Giant foxtail ([6]; Rate 62 g/ha, Postemergence) | Giant foxtail plant response rating ([6]; Rate 125 g/ha, Postemergence) | Giant foxtail plant response rating ([6]; Rate 125 g/ha, Preemergence) | Plant response rating, Giant foxtail ([6]; Rate 250 g/ha, Postemergence) | Plant response rating, Giant foxtail [6, 16] | Plant response rating, Velvetleaf ([11]; Rate 62 g/ha, Postemergence) | Velvetleaf plant response rating ([11]; Rate 125 g/ha, Postemergence) | S. Flatsedge plant response rating [15, 20]
2: Plant response rating, B. signalgrass ([3]; Rate 250 g/ha, Postemergence) | Plant response rating, Cocklebur ([4]; Rate 62 g/ha, Postemergence) | Plant response rating, Cocklebur ([4]; Rate 125 g/ha, Postemergence) | Plant response rating, Velvetleaf ([11]; Rate 250 g/ha, Postemergence) | Plant response rating, Barnyardgrass [13, 19] | Plant response rating, S. Flatsedge [15, 19]
6: Plant response rating, Bedstraw ([1]; Rate 250 g/ha, Postemergence) | Plant response rating, Redroot pigweed ([8]; Rate 62 g/ha, Postemergence) | Redroot pigweed plant response rating ([8]; Rate 125 g/ha, Postemergence) | Rape plant response rating (rape (Brassica napus); Rate 125 g/ha, Postemergence) | Plant response rating, Rape (rape (Brassica napus); Rate 250 g/ha, Postemergence)
4: Plant response rating, Redroot pigweed [8, 16]
0: Bedstraw plant response rating ([1]; Rate 62 g/ha) | Bedstraw plant response rating ([1]; Rate 125 g/ha) | Plant response rating, Bedstraw [1, 16] | Plant response rating, Blackgrass ([2]; Rate 62 g/ha, Postemergence) | Blackgrass plant response rating ([2]; Rate 62 g/ha) | Blackgrass plant response rating ([2]; Rate 125 g/ha) | Plant response rating, Blackgrass [2, 16] | B. signalgrass plant response rating ([3]; Rate 62 g/ha) | B. signalgrass plant response rating ([3]; Rate 125 g/ha) | Cocklebur plant response rating ([4]; Rate 62 g/ha) | Cocklebur plant response rating ([4]; Rate 125 g/ha) | Plant response rating, Cocklebur [4, 16] | Corn plant response rating (corn (Zea mays); Rate 62 g/ha) | Corn plant response rating (corn (Zea mays); Rate 125 g/ha) | Plant response rating, Corn (corn (Zea mays); [16]) | Crabgrass plant response rating ([5]; Rate 62 g/ha) | Crabgrass plant response rating ([5]; Rate 125 g/ha) | Giant foxtail plant response rating ([6]; Rate 62 g/ha, Preemergence) | Morningglory plant response rating ([7]; Rate 62 g/ha, Preemergence) | Morningglory plant response rating ([7]; Rate 125 g/ha, Preemergence) | Plant response rating, Morningglory [7, 16] | Redroot pigweed plant response rating ([8]; Rate 62 g/ha, Preemergence) | Redroot pigweed plant response rating ([8]; Rate 125 g/ha, Preemergence) | Plant response rating, Nutsedge ([9]; Rate 62 g/ha, Postemergence) | Nutsedge plant response rating ([9]; Rate 62 g/ha, Preemergence) | Nutsedge plant response rating ([9]; Rate 125 g/ha, Postemergence) | Nutsedge plant response rating ([9]; Rate 125 g/ha, Preemergence) | Rape plant response rating (rape (Brassica napus); Rate 62 g/ha, Preemergence) | Rape plant response rating (rape (Brassica napus); Rate 125 g/ha, Preemergence) | Plant response rating, Rape (rape (Brassica napus); [16]) | Soybean plant response rating (soybean (Glycine max); Rate 62 g/ha, Preemergence) | Plant response rating, Soybean (soybean (Glycine max); Rate 125 g/ha, Preemergence) | Plant response rating, Soybean (soybean (Glycine max); [16]) | Sugarbeets plant response rating ([10]; Rate 62 g/ha, Preemergence) | Plant response rating, Sugarbeets ([10]; Rate 125 g/ha, Preemergence) | Plant response rating, Sugarbeets [10, 16] | Velvetleaf plant response rating ([11]; Rate 62 g/ha, Preemergence) | Plant response rating, Velvetleaf ([11]; Rate 125 g/ha, Preemergence) | Plant response rating, Velvetleaf [11, 16] | Plant response rating, Wheat ([12]; Rate 62 g/ha, Postemergence) | Wheat plant response rating ([12]; Rate 62 g/ha, Preemergence) | Wheat plant response rating ([12]; Rate 125 g/ha, Postemergence) | Plant response rating, Wheat ([12]; Rate 125 g/ha, Preemergence) | Plant response rating, Wheat ([12]; Rate 250 g/ha, Postemergence) | Plant response rating, Wheat [12, 16] | Plant response rating, Wild oats (wild oat (Avena fatua); Rate 62 g/ha, Postemergence) | Wild oats plant response rating (wild oat (Avena fatua); Rate 62 g/ha, Preemergence) | Wild oats plant response rating (wild oat (Avena fatua); Rate 125 g/ha, Postemergence) | Plant response rating, Wild oats (wild oat (Avena fatua); Rate 125 g/ha, Preemergence) | Plant response rating, Wild oats (wild oat (Avena fatua); Rate 250 g/ha, Postemergence) | Plant response rating, Wild oats (wild oat (Avena fatua); [16]) | Plant response rating, Barnyardgrass [13, 17] | Plant response rating, Barnyardgrass [13, 18] | Plant response rating, Ducksalad [14, 17] | Plant response rating, Ducksalad [14, 18] | Plant response rating, Ducksalad [14, 19] | Plant response rating, Rice (rice (Oryza sativa); [17]) | Rice plant response rating (rice (Oryza sativa); [20]) | Plant response rating, Rice (rice (Oryza sativa); [19]) | Plant response rating, S. Flatsedge [15, 17]
3: Plant response rating, Bedstraw ([1]; Rate 125 g/ha, Postemergence) | Plant response rating, Cocklebur ([4]; Rate 250 g/ha, Postemergence) | Plant response rating, Morningglory ([7]; Rate 62 g/ha, Postemergence) | Morningglory plant response rating ([7]; Rate 125 g/ha, Postemergence) | Plant response rating, Morningglory ([7]; Rate 250 g/ha, Postemergence) | Plant response rating, Rape (rape (Brassica napus); Rate 62 g/ha, Postemergence) | Plant response rating, Soybean (soybean (Glycine max); Rate 62 g/ha, Postemergence) | Soybean plant response rating (soybean (Glycine max); Rate 125 g/ha, Postemergence) | Plant response rating, Sugarbeets ([10]; Rate 62 g/ha, Postemergence)
8: Plant response rating, Redroot pigweed ([8]; Rate 250 g/ha, Postemergence) | Sugarbeets plant response rating ([10]; Rate 125 g/ha, Postemergence) | Plant response rating, Sugarbeets ([10]; Rate 250 g/ha, Postemergence)
